Results on seven molecules are retold here after patent publication US9801960B2, “Probe for a biological specimen and labelling method and screening method using the probe” (CANON KABUSHIKI KAISHA, priority 2008, dated 2017).

The first data set has as its system Zebrafish juveniles. Description: In vivo labelling of Zebrafish juveniles with probe for biological specimen. Also on record: key to Staining property: +++: stained; −: no stained; key to Fluorescence sensitivity: +++: strongly observed; ++: moderately observed; +: weakly observed; −: no stained. Conditions: 10 ng/mL in water, 1 hour, stereoscopic microscope. The essentials: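 Five zebrafish juveniles were immersed in distilled water containing staining compound at 10 ng/mL (DMSO solution) for 1 hour. They were then washed three times with Egg Water, immobilised in 3% methylcellulose and imaged by stereomicroscope. Staining and fluorescence intensity were scored visually on a +++ to − scale.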
With `CCN1C(=O)/C(=c2/s/c(=C/c3ccc4c(c3)C3CCCC3N4c3ccc(C=C(c4ccccc4)c4ccccc4)cc3)c(=O)n2CC(=O)O)SC1=S` (stereo not drawn) [Dye 102], the “Site(s) to be labelled” value was “gastrointestinal tract”.

Take `CCN1C(=O)/C(=c2\s/c(=C/c3ccc4c(c3)C3CCCC3N4c3ccc(C=C(c4ccccc4)c4ccccc4)cc3)c(=O)n2CC(=O)O)SC1=S` (stereo not drawn) [Dye 103]: the “Site(s) to be labelled” value was “gastrointestinal tract”.

On to `N#C/C(=C\c1ccc2c(c1)C1CCCC1N2c1ccccc1)C(=O)O` (stereo not drawn) [Dye 105], for which the “Site(s) to be labelled” value is “liver and gastrointestinal tract”.

For `CCN1c2ccc(/C=C3/SC(=S)N(CC(=O)O)C3=O)cc2C2CCCC21` (stereo not drawn) [Dye 109], the “Site(s) to be labelled” value is “liver and gastrointestinal tract”.

In the case of `CCN1C(=O)/C(=c2/s/c(=C/c3ccc4c(c3)C3CCCC3N4CC)c(=O)n2CC(=O)O)SC1=S` (stereo not drawn) [Dye 110], the “Site(s) to be labelled” value was “blood vessel”.

Regarding `CSc1cccc(N2c3ccc(/C=C4/SC(=S)N(CC(=O)O)C4=O)cc3C3CCCC32)c1` (stereo not drawn) [Dye 115], the “Site(s) to be labelled” value was “blood vessel, gallbladder, and gastrointestinal”.

Still in this data set, the particulars now being: 10 ng/mL, 1 hour, fluorescence intensity visually evaluated.
For `CCN1C(=O)/C(=c2/s/c(=C/c3ccc4c(c3)C3CCCC3N4c3ccc(C=C(c4ccccc4)c4ccccc4)cc3)c(=O)n2CC(=O)O)SC1=S` (stereo not drawn) [Dye 102], the Fluorescence sensitivity result is listed as “+++”.

As to `CCN1C(=O)/C(=c2\s/c(=C/c3ccc4c(c3)C3CCCC3N4c3ccc(C=C(c4ccccc4)c4ccccc4)cc3)c(=O)n2CC(=O)O)SC1=S` (stereo not drawn) [Dye 103], the Fluorescence sensitivity result is “+++”.

Turning to `N#C/C(=C\c1ccc2c(c1)C1CCCC1N2c1ccccc1)C(=O)O` (stereo not drawn) [Dye 105], the Fluorescence sensitivity result was “++”.

Regarding `N#C/C(=C\c1ccc2c(c1)C1CCCC1N2c1ccc(C=C(c2ccccc2)c2ccccc2)cc1)C(=O)O` (stereo not drawn) [Dye 108], the Fluorescence sensitivity entry is listed as “+++”.

As to `CCN1c2ccc(/C=C3/SC(=S)N(CC(=O)O)C3=O)cc2C2CCCC21` (stereo not drawn) [Dye 109], the Fluorescence sensitivity entry is given as “+++”.

As to `CCN1C(=O)/C(=c2/s/c(=C/c3ccc4c(c3)C3CCCC3N4CC)c(=O)n2CC(=O)O)SC1=S` (stereo not drawn) [Dye 110], the Fluorescence sensitivity entry was “+++”.

Turning to `CSc1cccc(N2c3ccc(/C=C4/SC(=S)N(CC(=O)O)C4=O)cc3C3CCCC32)c1` (stereo not drawn) [Dye 115], the Fluorescence sensitivity entry is given as “+++”.

The same data set, now with this note: 10 ng/mL, 1 hour, visually evaluated.
For `CCN1C(=O)/C(=c2/s/c(=C/c3ccc4c(c3)C3CCCC3N4c3ccc(C=C(c4ccccc4)c4ccccc4)cc3)c(=O)n2CC(=O)O)SC1=S` (stereo not drawn) [Dye 102], the Staining property entry is “+++”.

Regarding `CCN1C(=O)/C(=c2\s/c(=C/c3ccc4c(c3)C3CCCC3N4c3ccc(C=C(c4ccccc4)c4ccccc4)cc3)c(=O)n2CC(=O)O)SC1=S` (stereo not drawn) [Dye 103], the Staining property entry was “+++”.

For `N#C/C(=C\c1ccc2c(c1)C1CCCC1N2c1ccccc1)C(=O)O` (stereo not drawn) [Dye 105], the Staining property entry was “+++”.

As to `N#C/C(=C\c1ccc2c(c1)C1CCCC1N2c1ccc(C=C(c2ccccc2)c2ccccc2)cc1)C(=O)O` (stereo not drawn) [Dye 108], the Staining property result was “+++”.

`CCN1c2ccc(/C=C3/SC(=S)N(CC(=O)O)C3=O)cc2C2CCCC21` (stereo not drawn) [Dye 109]: the Staining property result is listed as “+++”.

As for `CCN1C(=O)/C(=c2/s/c(=C/c3ccc4c(c3)C3CCCC3N4CC)c(=O)n2CC(=O)O)SC1=S` (stereo not drawn) [Dye 110], the Staining property entry was “+++”.

Regarding `CSc1cccc(N2c3ccc(/C=C4/SC(=S)N(CC(=O)O)C4=O)cc3C3CCCC32)c1` (stereo not drawn) [Dye 115], the Staining property result is “+++”.

Tested on in a further data set: not listed separately
Description: Storage stability of staining compound solution in DMSO. It counts as physicochemical. Conditions: 10 ng/mL in DMSO, closed glass container, normal temperature, 1 month; rate of change of absorbance and fluorescence intensity. In outline: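 Compounds held as 10 ng/mL DMSO solutions in closed glass containers at normal temperature for 1 month. Rates of change in absorbance and fluorescence intensity at a given wavelength versus start were scored: +++ <5%, ++ 5–15%, − >15%.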
In the case of `CCN1C(=O)/C(=c2/s/c(=C/c3ccc4c(c3)C3CCCC3N4c3ccc(C=C(c4ccccc4)c4ccccc4)cc3)c(=O)n2CC(=O)O)SC1=S` (stereo not drawn) [Dye 102], the Storage stability result is “+++ (rates of change of the absorbance and the fluorescence intensity are less than 5%, and thus, the storage stability is highly excellent)”.

With `CCN1C(=O)/C(=c2\s/c(=C/c3ccc4c(c3)C3CCCC3N4c3ccc(C=C(c4ccccc4)c4ccccc4)cc3)c(=O)n2CC(=O)O)SC1=S` (stereo not drawn) [Dye 103], the Storage stability result was “+++ (rates of change of the absorbance and the fluorescence intensity are less than 5%, and thus, the storage stability is highly excellent)”.

Take `N#C/C(=C\c1ccc2c(c1)C1CCCC1N2c1ccccc1)C(=O)O` (stereo not drawn) [Dye 105]: the Storage stability result was “+++ (rates of change of the absorbance and the fluorescence intensity are less than 5%, and thus, the storage stability is highly excellent)”.

For the molecule `N#C/C(=C\c1ccc2c(c1)C1CCCC1N2c1ccc(C=C(c2ccccc2)c2ccccc2)cc1)C(=O)O` (stereo not drawn) [Dye 108], the Storage stability result is “+++ (rates of change of the absorbance and the fluorescence intensity are less than 5%, and thus, the storage stability is highly excellent)”.

Turning to `CCN1c2ccc(/C=C3/SC(=S)N(CC(=O)O)C3=O)cc2C2CCCC21` (stereo not drawn) [Dye 109], the Storage stability entry is “+++ (rates of change of the absorbance and the fluorescence intensity are less than 5%, and thus, the storage stability is highly excellent)”.

Regarding `CCN1C(=O)/C(=c2/s/c(=C/c3ccc4c(c3)C3CCCC3N4CC)c(=O)n2CC(=O)O)SC1=S` (stereo not drawn) [Dye 110], the Storage stability entry was “+++ (rates of change of the absorbance and the fluorescence intensity are less than 5%, and thus, the storage stability is highly excellent)”.

As for `CSc1cccc(N2c3ccc(/C=C4/SC(=S)N(CC(=O)O)C4=O)cc3C3CCCC32)c1` (stereo not drawn) [Dye 115], the Storage stability result was “+++ (rates of change of the absorbance and the fluorescence intensity are less than 5%, and thus, the storage stability is highly excellent)”.

Tested on in the next data set: not listed separately
Nature of the data set: Excitation and fluorescence emission wavelength measurement. Format: physicochemical. Also on record: Stokes shift (λem − λex): unit not given here. Conditions: aqueous solution: 10 mg/mL solution in DMSO diluted 500-fold with purified water. On the procedure:
It should be noted that the excitation wavelength and the fluorescence emission wavelength of the staining compound were determined by measuring an aqueous solution, which had been obtained by diluting 500-fold a 10 mg/mL solution of the staining compound in DMSO with purified water, with a fluorescence spectrophotometer FL 4500 manufactured by Hitachi High-Technologies Corporation.
Take `CCN1C(=O)/C(=c2/s/c(=C/c3ccc4c(c3)C3CCCC3N4c3ccc(C=C(c4ccccc4)c4ccccc4)cc3)c(=O)n2CC(=O)O)SC1=S` (stereo not drawn) [Dye 102]: the Excitation wavelength λex is 551 nm, the Fluorescence emission wavelength λem is 673 nm and the “Stokes shift (λem − λex)” value was determined as 122.

For `CCN1C(=O)/C(=c2\s/c(=C/c3ccc4c(c3)C3CCCC3N4c3ccc(C=C(c4ccccc4)c4ccccc4)cc3)c(=O)n2CC(=O)O)SC1=S` (stereo not drawn) [Dye 103], the Excitation wavelength λex worked out at 567 nm, the Fluorescence emission wavelength λem was 702 nm and the “Stokes shift (λem − λex)” value came to 135.

On to `N#C/C(=C\c1ccc2c(c1)C1CCCC1N2c1ccccc1)C(=O)O` (stereo not drawn) [Dye 105], for which the Excitation wavelength λex turned out to be 451 nm, the Fluorescence emission wavelength λem came to 530 nm and the “Stokes shift (λem − λex)” value stood at 79.

On to `N#C/C(=C\c1ccc2c(c1)C1CCCC1N2c1ccc(C=C(c2ccccc2)c2ccccc2)cc1)C(=O)O` (stereo not drawn) [Dye 108], for which the Excitation wavelength λex amounted to 479 nm, the Fluorescence emission wavelength λem is 600 nm and the “Stokes shift (λem − λex)” value was 121.

As to `CCN1c2ccc(/C=C3/SC(=S)N(CC(=O)O)C3=O)cc2C2CCCC21` (stereo not drawn) [Dye 109], the Excitation wavelength λex worked out at 440 nm, the Fluorescence emission wavelength λem came to 600 nm and the “Stokes shift (λem − λex)” value amounted to 160.

With `CCN1C(=O)/C(=c2/s/c(=C/c3ccc4c(c3)C3CCCC3N4CC)c(=O)n2CC(=O)O)SC1=S` (stereo not drawn) [Dye 110], the Excitation wavelength λex turned out to be 623 nm, the Fluorescence emission wavelength λem was determined as 671 nm and the “Stokes shift (λem − λex)” value was found to be 48.

For the molecule `CSc1cccc(N2c3ccc(/C=C4/SC(=S)N(CC(=O)O)C4=O)cc3C3CCCC32)c1` (stereo not drawn) [Dye 115], the Excitation wavelength λex was 520 nm, the Fluorescence emission wavelength λem was 640 nm and the “Stokes shift (λem − λex)” value is on record as 120.
